ChEMBL document CHEMBL3885861, “Open TG-GATES”

Organism: Rattus norvegicus
Experiment: Open TG-GATES - Regimen: Single
Format: toxicity, organism-based, Sprague-Dawley
Parameters: regimen Single, gender Male, age 6 weeks
Conditions: in vivo, po, 200 mg/kg, route gavage, dose level Low; for APTT / Bas / Eos / Fbg / Hb / Ht / Lym / MCH / MCHC / MCV / Mono / Neu / PT / Plat / RBC / Ret / WBC: tissue Blood; for KIDNEY_L / KIDNEY_R / KIDNEY_TOTAL: tissue Kidney; for LIVER: tissue Liver; for A/G / ALP / ALT / AST / BUN / CRE / Ca / Cl / DBIL / GLC / IP / K / LDH / Na / PL / RALB / TBIL / TC / TG / TP / gamma-GTP: tissue Plasma

SMILES: NNC(=O)c1ccncc1 [ISONIAZID]
- TERMINAL_BW (3 h): 222.6 g
- APTT (3 h): 18.4 s
- Bas (3 h): 0%
- Eos (3 h): 0.8%
- Fbg (3 h): 239.8 mg/dL
- Hb (3 h): 13.6 g/dL
- Ht (3 h): 38%
- Lym (3 h): 74.4%
- MCH (3 h): 22.1 pg
- MCHC (3 h): 35.8%
- MCV (3 h): 61.6 fL
- Mono (3 h): 2%
- Neu (3 h): 22.4%
- PT (3 h): 12.2 s
- Plat (3 h): 126 x10_4/uL
- RBC (3 h): 617.4 x10_4/ul
- Ret (3 h): 7.7%
- WBC (3 h): 80.9 x10_2/uL
- KIDNEY_L (3 h): 1 g
- KIDNEY_R (3 h): 1 g
- KIDNEY_TOTAL (3 h): 2 g
- LIVER (3 h): 9.3 g
- A/G (3 h): 1.6
- ALP (3 h): 918.8 IU/L
- ALT (3 h): 35.2 IU/L
- AST (3 h): 70 IU/L
- BUN (3 h): 8.8 mg/dL
- CRE (3 h): 0.4 mg/dL
- Ca (3 h): 10.3 mg/dL
- Cl (3 h): 105.2 meq/L
- DBIL (3 h): 0.066 mg/dL
- GLC (3 h): 211 mg/dL
- IP (3 h): 10.1 mg/dL
- K (3 h): 3.6 meq/L
- LDH (3 h): 175.2 IU/L
- Na (3 h): 142.8 meq/L
- PL (3 h): 137 mg/dL
- RALB (3 h): 3.5 g/dL
- TBIL (3 h): 0.1 mg/dL
- TC (3 h): 76.4 mg/dL
- TG (3 h): 57.8 mg/dL
- TP (3 h): 5.7 g/dL
- gamma-GTP (3 h): 1 IU/L
- TERMINAL_BW (6 h): 219 g
- APTT (6 h): 18.5 s
- Bas (6 h): 0%
- Eos (6 h): 1%
- Fbg (6 h): 225 mg/dL
- Hb (6 h): 13.7 g/dL
- Ht (6 h): 38.3%
- Lym (6 h): 76.4%
- MCH (6 h): 21.7 pg
- MCHC (6 h): 35.8%
- MCV (6 h): 60.5 fL
- Mono (6 h): 2.6%
- Neu (6 h): 19%
- PT (6 h): 12 s
- Plat (6 h): 126.8 x10_4/uL
- RBC (6 h): 633.8 x10_4/ul
- Ret (6 h): 7.6%
- WBC (6 h): 87.2 x10_2/uL
- KIDNEY_L (6 h): 0.9 g
- KIDNEY_R (6 h): 0.9 g
- KIDNEY_TOTAL (6 h): 1.9 g
- LIVER (6 h): 9.6 g
- A/G (6 h): 1.5
- ALP (6 h): 735.6 IU/L
- ALT (6 h): 28.4 IU/L
- AST (6 h): 58 IU/L
- BUN (6 h): 8.2 mg/dL
- CRE (6 h): 0.4 mg/dL
- Ca (6 h): 10.2 mg/dL
- Cl (6 h): 104.8 meq/L
- DBIL (6 h): 0.064 mg/dL
- GLC (6 h): 211 mg/dL
- IP (6 h): 9.5 mg/dL
- K (6 h): 3.9 meq/L
- LDH (6 h): 197.4 IU/L
- Na (6 h): 142.4 meq/L
- PL (6 h): 140.8 mg/dL
- RALB (6 h): 3.3 g/dL
- TBIL (6 h): 0.1 mg/dL
- TC (6 h): 76 mg/dL
- TG (6 h): 71.2 mg/dL
- TP (6 h): 5.5 g/dL
- gamma-GTP (6 h): 1 IU/L
- TERMINAL_BW (9 h): 218.2 g
- APTT (9 h): 18.8 s
- Bas (9 h): 0.2%
- Eos (9 h): 0.6%
- Fbg (9 h): 228.2 mg/dL
- Hb (9 h): 13.7 g/dL
- Ht (9 h): 37.9%
- Lym (9 h): 75%
- MCH (9 h): 21.8 pg
- MCHC (9 h): 36%
- MCV (9 h): 60.6 fL
- Mono (9 h): 3%
- Neu (9 h): 20.8%
- PT (9 h): 12.3 s
- Plat (9 h): 119 x10_4/uL
- RBC (9 h): 626.2 x10_4/ul
- Ret (9 h): 7.8%
- WBC (9 h): 82.5 x10_2/uL
- KIDNEY_L (9 h): 0.9 g
- KIDNEY_R (9 h): 0.9 g
- KIDNEY_TOTAL (9 h): 1.8 g
- LIVER (9 h): 8.8 g
- A/G (9 h): 1.7
- ALP (9 h): 793.2 IU/L
- ALT (9 h): 23.4 IU/L
- AST (9 h): 44.6 IU/L
- BUN (9 h): 9.4 mg/dL
- CRE (9 h): 0.4 mg/dL
- Ca (9 h): 10.5 mg/dL
- Cl (9 h): 105 meq/L
- DBIL (9 h): 0.064 mg/dL
- GLC (9 h): 195.2 mg/dL
- IP (9 h): 9.3 mg/dL
- K (9 h): 3.9 meq/L
- LDH (9 h): 211.4 IU/L
- Na (9 h): 142.8 meq/L
- PL (9 h): 150.2 mg/dL
- RALB (9 h): 3.5 g/dL
- TBIL (9 h): 0.1 mg/dL
- TC (9 h): 80.2 mg/dL
- TG (9 h): 77.2 mg/dL
- TP (9 h): 5.5 g/dL
- gamma-GTP (9 h): 1 IU/L
- TERMINAL_BW (24 h): 229.4 g
- APTT (24 h): 18.3 s
- Bas (24 h): 0.8%
- Eos (24 h): 1%
- Fbg (24 h): 229.2 mg/dL
- Hb (24 h): 13.5 g/dL
- Ht (24 h): 37.6%
- Lym (24 h): 78.8%
- MCH (24 h): 21.7 pg
- MCHC (24 h): 36.1%
- MCV (24 h): 60 fL
- Mono (24 h): 2.4%
- Neu (24 h): 16%
- PT (24 h): 11.7 s
- Plat (24 h): 134.2 x10_4/uL
- RBC (24 h): 626.6 x10_4/ul
- Ret (24 h): 6.5%
- WBC (24 h): 89.2 x10_2/uL
- KIDNEY_L (24 h): 1 g
- KIDNEY_R (24 h): 1 g
- KIDNEY_TOTAL (24 h): 2 g
- LIVER (24 h): 10.3 g
- A/G (24 h): 1.6
- ALP (24 h): 1043.4 IU/L
- ALT (24 h): 30 IU/L
- AST (24 h): 58.2 IU/L
- BUN (24 h): 15.6 mg/dL
- CRE (24 h): 0.4 mg/dL
- Ca (24 h): 10.8 mg/dL
- Cl (24 h): 103 meq/L
- DBIL (24 h): 0.06 mg/dL
- GLC (24 h): 200.4 mg/dL
- IP (24 h): 8.5 mg/dL
- K (24 h): 4.3 meq/L
- LDH (24 h): 221.4 IU/L
- Na (24 h): 141.8 meq/L
- PL (24 h): 139 mg/dL
- RALB (24 h): 3.6 g/dL
- TBIL (24 h): 0.1 mg/dL
- TC (24 h): 71.4 mg/dL
- TG (24 h): 101.6 mg/dL
- TP (24 h): 5.7 g/dL
- gamma-GTP (24 h): 1.4 IU/L
